# Legend:
# [1] = tested on: isolated aortic rings pre-contracted with phenylephrine; experiment: Relaxation of isolated rat aortic rings pre-contracted with phenylephrine; assay type: cell-based; details: for relaxation as percentage of the maximal phenylephrine-mediated contraction: Example 1; for percentage of relaxation: Example 4A, 100 μM CORM-3
# Procedure: The method for the preparation of isolated aortic rings has been previously described (5; 7). The thoracic aorta was isolated from Sprague-Dawley rats (350-450 g) and flushed with cold Krebs-Henseleit buffer (4° C., pH 7.4) containing (in mM): 118 NaCl, 4.7 KCl, 1.2 KH2PO4, 1.2 MgSO4.7H2O, 22 NaHCO3, 11 Glucose, 0.03 K^+EDTA, 2.5 CaCl2 and supplemented with 10 AM indomethacin. Each aorta was trimmed of adventitial tissue and ring sections (˜3 mm length) were produced from the mid aortic segment. The rings were then mounted between two stainless steel hooks in 9-ml organ baths containing Krebs-Henseleit buffer which was maintained at 37° C. and continuously gassed with 95% O2-5% CO2. One hook was attached to a Grass FT03 isometric force transducer whilst the other was anchored to a sledge for regulation of the resting tension of the aortic ring. The rings were initially equilibrated for 30 min under a resting tension of 2 g which was previously determined to be optimal. Continuous recording of tension was made on a Grass 7D polygraph (Grass Instruments, Quincy, Mass.) in combination with a Biopac MP100 system using AcqKnowledge™ software (Linton Instruments, Norfolk, UK). Before each protocol was carried out, rings were contracted with a standard dose of KCl (100 mM) in order to provide an internal reference and to control for variability in contractile responsiveness between tissues.
# The preparation of isolated aortic rings and recording of tension was as in Example 1. Before each protocol was carried out, rings were contracted with a standard dose of KCl (100 mM) in order-to provide an internal reference and to control for variability in contractile responsiveness between tissues. […] An additional set of experiments was performed in which the vascular endothelium was removed from the aortic tissue prior to CORM-3 addition.
# [2] = tested on: Lewis rats; experiment: Effect on mean arterial pressure in anaesthetised rats; assay type: in vivo, rat
# Procedure: Lewis rats (280-350 g) were anaesthetised by intramuscular injection of 1 ml/kg Hypnorm. Specially designed femoral artery and venous catheters were then surgically implanted as previously described (5; 6) and blood pressure monitored continuously using a polygraph recorder.
# [3] = tested on: human platelets; details: increased cGMP levels by YC-1 in the presence of CO; literature reference (1); cited from earlier work
# [4] = tested on: Myoglobin (Mb); experiment: Conversion of myoglobin (Mb) to carbon monoxide myoglobin (MbCO), CO release; assay type: biochemical; details: for conversion of Mb to MbCO: Mb 50 μM, absorption spectrum
# From the text: This method has been previously developed to monitor and determine the amount of CO released from CO-RMs (7).
# [5] = molecular target: T1, purified guanylate cyclase (Bos taurus, UniProt P16068); details: in vitro; literature reference (8); cited from earlier work
# T1 sequence (P16068 1-619): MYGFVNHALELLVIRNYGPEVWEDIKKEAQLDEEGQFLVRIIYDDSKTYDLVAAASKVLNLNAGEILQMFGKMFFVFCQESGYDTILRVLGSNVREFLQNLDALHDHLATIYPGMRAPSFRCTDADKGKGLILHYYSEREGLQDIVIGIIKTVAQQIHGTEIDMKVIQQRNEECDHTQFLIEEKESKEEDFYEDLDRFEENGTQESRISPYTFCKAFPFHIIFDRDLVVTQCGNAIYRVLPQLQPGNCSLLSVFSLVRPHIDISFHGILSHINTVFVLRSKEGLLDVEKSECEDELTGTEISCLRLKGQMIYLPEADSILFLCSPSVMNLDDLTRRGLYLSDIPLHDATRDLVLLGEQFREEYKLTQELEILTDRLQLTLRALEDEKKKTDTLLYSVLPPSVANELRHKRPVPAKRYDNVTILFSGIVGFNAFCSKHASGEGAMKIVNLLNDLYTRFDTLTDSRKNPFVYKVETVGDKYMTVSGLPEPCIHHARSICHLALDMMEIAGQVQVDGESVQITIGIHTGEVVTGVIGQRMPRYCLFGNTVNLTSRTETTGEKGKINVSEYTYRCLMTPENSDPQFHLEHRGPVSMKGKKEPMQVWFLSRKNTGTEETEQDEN
# T1 sequence (P19687 1-691 partner): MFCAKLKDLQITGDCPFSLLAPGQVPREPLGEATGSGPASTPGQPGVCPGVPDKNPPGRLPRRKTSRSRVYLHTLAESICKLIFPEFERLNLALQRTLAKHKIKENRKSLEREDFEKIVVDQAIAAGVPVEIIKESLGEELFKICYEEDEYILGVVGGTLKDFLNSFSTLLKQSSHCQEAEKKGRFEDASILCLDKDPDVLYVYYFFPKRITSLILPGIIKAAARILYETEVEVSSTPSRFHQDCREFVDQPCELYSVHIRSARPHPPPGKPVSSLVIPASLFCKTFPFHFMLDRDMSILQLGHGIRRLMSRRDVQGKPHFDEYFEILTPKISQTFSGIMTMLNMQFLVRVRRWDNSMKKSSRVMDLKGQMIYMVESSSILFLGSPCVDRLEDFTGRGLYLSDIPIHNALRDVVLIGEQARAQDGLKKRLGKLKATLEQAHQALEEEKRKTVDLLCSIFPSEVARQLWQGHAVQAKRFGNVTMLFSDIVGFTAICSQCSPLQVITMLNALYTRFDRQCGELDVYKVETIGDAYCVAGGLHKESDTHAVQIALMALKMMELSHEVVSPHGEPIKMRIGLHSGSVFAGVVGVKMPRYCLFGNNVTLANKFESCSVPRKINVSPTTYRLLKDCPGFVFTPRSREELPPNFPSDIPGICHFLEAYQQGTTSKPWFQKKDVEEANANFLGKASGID
# [6] = tested on: Myoglobin (Mb); details: stated as known; cited from earlier work
# [7] = tested on: isolated aortic rings pre-contracted with phenylephrine; details: stated as known; species not given; cited from earlier work
compound,measurement,setting,value
"OCc1ccc(-c2nn(Cc3ccccc3)c3ccccc23)o1 [YC-1, 3-(5′-hydroxymethyl-2′-furyl)-1-benzyl-indazole, reference compound]",change in vessel contractility,"[1]; Example 4B, pre-treatment with YC-1 alone (1 μM, 30 min)",did not cause any significant change in vessel contractility
same,decrease in MAP,"[2]; YC-1 1.2 μmoles/kg i.v., after 5 min, before CORM-3",7.0±1.6 mmHg
same,inhibition of platelet aggregation,[3],complete inhibition of platelet aggregation
"[C-]#[O+] [CO, carbon monoxide]",conversion of Mb to MbCO,[4],rapid conversion to carbon monoxide myoglobin (MbCO)
same,increase of enzymatic activity of purified guanylate cyclase,[5],4.4 fold
"[N]=O [NO, nitric oxide]",increase of enzymatic activity of purified guanylate cyclase,[5],130 fold
"NCC(=O)O.[C-]#[O+].[C-]#[O+].[C-]#[O+].[Cl][Ru] [CORM-3, Ru(CO)3Cl(NH2CH2CO2)]",relaxation as percentage of the maximal phenylephrine-mediated contraction,"[1]; CORM-3 25 μM, after first addition, presence of YC-1 (5 μM, 30 min pre-incubation)",33%
same,relaxation as percentage of the maximal phenylephrine-mediated contraction,"[1]; CORM-3 25 μM, after second addition, presence of YC-1 (5 μM, 30 min pre-incubation)",66.6%
same,relaxation as percentage of the maximal phenylephrine-mediated contraction,"[1]; CORM-3 25 μM, after third addition, presence of YC-1 (5 μM, 30 min pre-incubation)",80.9%
same,relaxation as percentage of the maximal phenylephrine-mediated contraction,"[1]; CORM-3 25 AM per addition, after first addition, absence of YC-1",10.3%
same,relaxation as percentage of the maximal phenylephrine-mediated contraction,"[1]; CORM-3 25 AM per addition, after second addition, absence of YC-1",24.1%
same,relaxation as percentage of the maximal phenylephrine-mediated contraction,"[1]; CORM-3 25 AM per addition, after third addition, absence of YC-1",38%
same,relaxation,"[1]; Example 3, 100 μM, within few minutes from addition",approximately 54%
same,percentage of relaxation,"[1]; first addition, in the presence of ODQ (10 μM, 15 min prior)",1.0±0.8%
same,percentage of relaxation,"[1]; first addition, in the presence of glibenclamide (10 μM, 30 min prior)",13.2±4.1%
same,percentage of relaxation,"[1]; first cumulative addition, mean±S.E.M., 6 experiments",37.5±5.3%
same,percentage of relaxation,"[1]; second cumulative addition, mean±S.E.M., 6 experiments",48.2±4.4%
same,percentage of relaxation,"[1]; third cumulative addition, mean±S.E.M., 6 experiments",53.9±4.3%
same,relaxation,"[1]; Example 4B, 25 μM CORM-3, after the third addition, pre-treatment with YC-1 (1 μM, 30 min)",77%
same,relaxation,"[1]; Example 4B, 25 μM CORM-3 alone, after the third addition",approximately 31%
same,effect of YC-1 on CORM-3-mediated relaxation,"[1]; Example 4B, 50 μM and 100 μM CORM-3, YC-1 1 μM pre-treatment",potentiation of relaxation
same,effect of L-NAME on relaxation at increased CORM-3 concentration,"[1]; Example 4C, CORM-3 200 and 400 μM, L-NAME present",reversed
same,relaxation,"[1]; Example 4C, CORM-3 alone, first addition",approximately 37%
same,relaxation,"[1]; Example 4C, CORM-3 first addition, presence of L-NAME (100 μM) in the organ bath",5%
same,response of aortic rings without the endothelium (−E),"[1]; Example 4C, endothelium removed, unless CORM-3 increased to 400 μM",did not respond to CORM-3 in the same way as intact vessels
same,conversion of Mb to MbCO,[4],formation of MbCO is observed
same,loss of CO on incubation,[4]; incubating overnight at 37° C. in phosphate buffer at pH=7.4,rapidly lost
same,decrease in MAP,"[2]; CORM-3 30 μmoles/kg i.v. first injection, YC-1 1.2 μmoles/kg i.v. 5 min before",37.0±2.4 mmHg
same,decrease in MAP,"[2]; CORM-3 30 μmoles/kg i.v. second injection, YC-1 1.2 μmoles/kg i.v. 5 min before first injection",22.0±2.3 mmHg
same,decrease in MAP,"[2]; CORM-3 alone 30 μmoles/kg i.v., first injection, recorded 20 min after injection",9.4±2.8 mmHg
same,decrease in MAP,"[2]; CORM-3 alone 30 μmoles/kg i.v., second bolus 20 min after the first",13.3±4.9 mmHg
"[Fe(SPh)2(2,2′-bipyridine) (CO)2]",release of CO to myoglobin in solution,[6],does not release CO to myoglobin in solution
same,dilatation of pre-contracted aortic rings,[7],capable of promoting dilatation of pre-contracted aortic rings

# From patent US20060147548A1, “Therapeutic delivery of carbon monoxide” (priority 2002, published 2006)
